According to ChEMBL document CHEMBL3627608, “Crystal structures of human RIP2 kinase catalytic domain complexed with ATP-competitive inhibitors: Foundations for understanding inhibitor selectivity” (Bioorg Med Chem, 2015):

What was measured:
[1] = target: T1, Serine/threonine-protein kinase BRSK2 (Homo sapiens) (UniProt Q8IWQ3); assay: Inhibition of BRSK2 (unknown origin) at 10 uM after 120 mins P33 radiolabeled kinase activity assay
T1 sequence (whole entry): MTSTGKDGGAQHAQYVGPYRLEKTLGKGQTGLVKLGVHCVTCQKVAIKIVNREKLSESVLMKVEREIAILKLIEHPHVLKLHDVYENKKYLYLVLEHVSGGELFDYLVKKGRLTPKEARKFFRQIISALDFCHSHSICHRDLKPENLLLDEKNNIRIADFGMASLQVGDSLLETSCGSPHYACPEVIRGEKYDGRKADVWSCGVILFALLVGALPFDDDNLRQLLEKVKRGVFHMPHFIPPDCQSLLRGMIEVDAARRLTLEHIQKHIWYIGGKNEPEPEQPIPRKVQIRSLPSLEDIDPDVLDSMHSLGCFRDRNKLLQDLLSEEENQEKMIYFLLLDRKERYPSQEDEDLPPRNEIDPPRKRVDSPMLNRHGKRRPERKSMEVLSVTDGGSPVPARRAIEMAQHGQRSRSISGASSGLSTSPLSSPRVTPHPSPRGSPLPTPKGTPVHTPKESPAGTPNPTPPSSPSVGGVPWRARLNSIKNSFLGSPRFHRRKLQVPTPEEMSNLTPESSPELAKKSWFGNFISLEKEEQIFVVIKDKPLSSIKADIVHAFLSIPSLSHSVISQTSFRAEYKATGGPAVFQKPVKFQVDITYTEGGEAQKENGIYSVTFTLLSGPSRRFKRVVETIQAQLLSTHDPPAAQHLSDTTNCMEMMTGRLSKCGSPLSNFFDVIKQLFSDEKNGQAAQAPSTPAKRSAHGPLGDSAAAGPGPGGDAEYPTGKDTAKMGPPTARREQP

[2] = target: cAMP-dependent protein kinase catalytic subunit gamma (Homo sapiens) (UniProt P22612); assay: Inhibition of PKAcgamma (unknown origin) at 10 uM after 120 mins P33 radiolabeled kinase activity assay
Sequence of cAMP-dependent protein kinase catalytic subunit gamma (Homo sapiens) (P22612 2-351 limits assumed): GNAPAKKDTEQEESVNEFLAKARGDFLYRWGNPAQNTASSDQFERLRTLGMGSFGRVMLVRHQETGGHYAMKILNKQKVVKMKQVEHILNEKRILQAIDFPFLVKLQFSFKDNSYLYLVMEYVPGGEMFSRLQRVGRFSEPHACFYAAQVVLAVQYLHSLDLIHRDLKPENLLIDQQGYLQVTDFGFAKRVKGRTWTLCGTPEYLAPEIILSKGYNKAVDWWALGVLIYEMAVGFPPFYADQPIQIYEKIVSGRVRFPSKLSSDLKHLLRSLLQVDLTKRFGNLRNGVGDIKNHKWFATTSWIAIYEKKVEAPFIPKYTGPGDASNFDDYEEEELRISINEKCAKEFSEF

[3] = target: Insulin-like growth factor 1 receptor (Homo sapiens) (UniProt P08069); assay: Inhibition of IGF1R (unknown origin) at 10 uM after 120 mins P33 radiolabeled kinase activity assay
Sequence of Insulin-like growth factor 1 receptor (Homo sapiens) (P08069 31-736 limits assumed): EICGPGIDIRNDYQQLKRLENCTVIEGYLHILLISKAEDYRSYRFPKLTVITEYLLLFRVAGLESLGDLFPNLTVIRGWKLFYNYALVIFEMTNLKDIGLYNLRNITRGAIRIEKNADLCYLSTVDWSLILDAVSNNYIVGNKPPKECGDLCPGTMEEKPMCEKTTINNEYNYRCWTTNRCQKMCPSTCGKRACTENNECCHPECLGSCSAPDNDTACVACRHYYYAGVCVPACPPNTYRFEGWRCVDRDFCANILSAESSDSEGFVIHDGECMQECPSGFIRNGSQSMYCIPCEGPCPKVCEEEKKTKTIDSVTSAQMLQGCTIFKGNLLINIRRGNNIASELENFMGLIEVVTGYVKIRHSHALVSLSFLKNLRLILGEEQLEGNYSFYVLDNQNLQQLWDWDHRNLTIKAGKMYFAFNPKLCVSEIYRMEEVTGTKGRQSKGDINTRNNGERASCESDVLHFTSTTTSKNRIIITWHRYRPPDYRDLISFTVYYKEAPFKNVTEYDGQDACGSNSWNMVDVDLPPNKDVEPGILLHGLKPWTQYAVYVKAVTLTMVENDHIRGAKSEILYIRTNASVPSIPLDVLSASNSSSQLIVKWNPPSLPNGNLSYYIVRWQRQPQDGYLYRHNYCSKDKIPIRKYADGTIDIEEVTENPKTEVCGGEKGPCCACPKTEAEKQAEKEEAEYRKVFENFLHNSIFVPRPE
Sequence of Insulin-like growth factor 1 receptor (Homo sapiens) (P08069 741-1367 limits assumed): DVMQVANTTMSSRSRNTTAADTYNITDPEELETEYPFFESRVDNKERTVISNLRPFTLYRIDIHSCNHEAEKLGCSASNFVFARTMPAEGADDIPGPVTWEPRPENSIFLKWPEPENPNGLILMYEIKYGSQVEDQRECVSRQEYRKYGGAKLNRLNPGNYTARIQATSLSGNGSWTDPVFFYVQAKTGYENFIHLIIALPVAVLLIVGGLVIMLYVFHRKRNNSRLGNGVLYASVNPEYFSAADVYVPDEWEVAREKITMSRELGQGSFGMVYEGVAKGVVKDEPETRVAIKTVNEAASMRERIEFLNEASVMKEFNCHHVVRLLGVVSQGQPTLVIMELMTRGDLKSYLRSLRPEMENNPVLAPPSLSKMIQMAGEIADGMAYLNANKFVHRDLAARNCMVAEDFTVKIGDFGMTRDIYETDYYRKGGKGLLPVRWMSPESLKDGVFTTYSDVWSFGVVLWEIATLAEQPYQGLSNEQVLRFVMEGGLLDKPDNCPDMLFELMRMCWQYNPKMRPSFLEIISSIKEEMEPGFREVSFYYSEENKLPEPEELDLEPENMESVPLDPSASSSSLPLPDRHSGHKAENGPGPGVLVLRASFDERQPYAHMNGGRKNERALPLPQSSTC

[4] = target: Death-associated protein kinase 2 (Homo sapiens) (UniProt Q9UIK4); assay: Inhibition of DAPK2 (unknown origin) at 10 uM after 120 mins P33 radiolabeled kinase activity assay
Sequence of Death-associated protein kinase 2 (Homo sapiens) (Q9UIK4 whole entry, looked up): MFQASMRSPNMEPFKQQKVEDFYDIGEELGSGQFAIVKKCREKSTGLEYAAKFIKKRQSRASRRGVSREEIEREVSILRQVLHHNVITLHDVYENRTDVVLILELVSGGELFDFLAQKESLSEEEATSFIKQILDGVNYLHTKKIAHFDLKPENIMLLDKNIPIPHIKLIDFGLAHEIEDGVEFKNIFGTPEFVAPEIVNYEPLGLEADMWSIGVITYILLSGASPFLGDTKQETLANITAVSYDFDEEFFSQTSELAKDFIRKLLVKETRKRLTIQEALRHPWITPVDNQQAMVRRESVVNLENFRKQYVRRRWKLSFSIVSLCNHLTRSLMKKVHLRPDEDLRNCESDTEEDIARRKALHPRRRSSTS

[5] = target: Tyrosine-protein kinase Fes/Fps (Homo sapiens) (UniProt P07332); assay: Inhibition of FES (unknown origin) at 10 uM after 120 mins P33 radiolabeled kinase activity assay
Sequence of Tyrosine-protein kinase Fes/Fps (Homo sapiens) (P07332 whole entry): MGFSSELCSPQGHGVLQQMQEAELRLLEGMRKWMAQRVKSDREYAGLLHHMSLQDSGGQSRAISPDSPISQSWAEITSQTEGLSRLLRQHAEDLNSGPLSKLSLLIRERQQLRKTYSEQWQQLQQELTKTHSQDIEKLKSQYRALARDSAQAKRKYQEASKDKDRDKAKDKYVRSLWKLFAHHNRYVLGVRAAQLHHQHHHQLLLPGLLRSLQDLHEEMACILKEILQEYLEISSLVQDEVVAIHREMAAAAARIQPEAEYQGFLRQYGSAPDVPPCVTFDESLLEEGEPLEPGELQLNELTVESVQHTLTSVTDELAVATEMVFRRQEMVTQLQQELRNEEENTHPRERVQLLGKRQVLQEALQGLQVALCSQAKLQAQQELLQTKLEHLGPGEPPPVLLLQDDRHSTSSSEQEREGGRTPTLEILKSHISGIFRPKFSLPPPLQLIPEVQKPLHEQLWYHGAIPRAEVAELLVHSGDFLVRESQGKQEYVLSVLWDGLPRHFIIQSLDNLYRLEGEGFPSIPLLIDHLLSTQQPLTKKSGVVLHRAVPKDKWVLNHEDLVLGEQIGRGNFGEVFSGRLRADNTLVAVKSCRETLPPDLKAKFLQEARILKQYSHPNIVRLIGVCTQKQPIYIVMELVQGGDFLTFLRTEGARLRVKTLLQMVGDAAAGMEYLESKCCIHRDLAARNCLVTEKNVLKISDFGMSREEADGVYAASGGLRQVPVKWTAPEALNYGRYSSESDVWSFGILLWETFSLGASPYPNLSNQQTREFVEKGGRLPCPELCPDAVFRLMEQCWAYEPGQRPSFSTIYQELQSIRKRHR

[6] = target: T2, Ephrin type-B receptor 4 (Homo sapiens) (UniProt P54760); assay: Inhibition of EPHB4 (unknown origin) at 10 uM after 120 mins P33 radiolabeled kinase activity assay
T2 sequence (whole entry): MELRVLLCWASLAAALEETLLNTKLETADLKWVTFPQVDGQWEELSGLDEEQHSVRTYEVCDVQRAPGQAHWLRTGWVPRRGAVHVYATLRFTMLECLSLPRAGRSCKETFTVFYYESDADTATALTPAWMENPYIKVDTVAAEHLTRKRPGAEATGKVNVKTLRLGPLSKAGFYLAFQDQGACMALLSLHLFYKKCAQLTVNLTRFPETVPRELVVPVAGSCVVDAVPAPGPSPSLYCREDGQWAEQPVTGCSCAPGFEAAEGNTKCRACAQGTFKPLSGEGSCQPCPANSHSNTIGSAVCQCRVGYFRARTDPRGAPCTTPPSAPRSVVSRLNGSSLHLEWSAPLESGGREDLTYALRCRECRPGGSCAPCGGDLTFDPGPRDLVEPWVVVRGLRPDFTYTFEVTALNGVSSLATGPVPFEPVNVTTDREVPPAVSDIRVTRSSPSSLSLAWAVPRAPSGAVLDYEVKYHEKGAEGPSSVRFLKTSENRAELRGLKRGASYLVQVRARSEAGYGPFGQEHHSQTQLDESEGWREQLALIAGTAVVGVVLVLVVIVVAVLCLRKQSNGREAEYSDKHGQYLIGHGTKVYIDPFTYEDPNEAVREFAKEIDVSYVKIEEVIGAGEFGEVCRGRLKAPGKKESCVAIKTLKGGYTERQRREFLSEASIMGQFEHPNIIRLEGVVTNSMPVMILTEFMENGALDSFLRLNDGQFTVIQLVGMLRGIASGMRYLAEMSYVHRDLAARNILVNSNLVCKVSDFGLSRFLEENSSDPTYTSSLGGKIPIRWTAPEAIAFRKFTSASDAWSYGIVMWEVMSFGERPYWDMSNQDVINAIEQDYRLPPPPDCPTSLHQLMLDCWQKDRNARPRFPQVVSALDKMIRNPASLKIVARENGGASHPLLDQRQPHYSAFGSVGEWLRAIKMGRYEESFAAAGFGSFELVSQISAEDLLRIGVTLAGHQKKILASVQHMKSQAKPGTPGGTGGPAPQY

[7] = target: Dual specificity testis-specific protein kinase 1 (Homo sapiens) (UniProt Q15569); assay: Inhibition of TESK1 (unknown origin) at 10 uM after 120 mins P33 radiolabeled kinase activity assay
Sequence of Dual specificity testis-specific protein kinase 1 (Homo sapiens) (Q15569 whole entry, looked up): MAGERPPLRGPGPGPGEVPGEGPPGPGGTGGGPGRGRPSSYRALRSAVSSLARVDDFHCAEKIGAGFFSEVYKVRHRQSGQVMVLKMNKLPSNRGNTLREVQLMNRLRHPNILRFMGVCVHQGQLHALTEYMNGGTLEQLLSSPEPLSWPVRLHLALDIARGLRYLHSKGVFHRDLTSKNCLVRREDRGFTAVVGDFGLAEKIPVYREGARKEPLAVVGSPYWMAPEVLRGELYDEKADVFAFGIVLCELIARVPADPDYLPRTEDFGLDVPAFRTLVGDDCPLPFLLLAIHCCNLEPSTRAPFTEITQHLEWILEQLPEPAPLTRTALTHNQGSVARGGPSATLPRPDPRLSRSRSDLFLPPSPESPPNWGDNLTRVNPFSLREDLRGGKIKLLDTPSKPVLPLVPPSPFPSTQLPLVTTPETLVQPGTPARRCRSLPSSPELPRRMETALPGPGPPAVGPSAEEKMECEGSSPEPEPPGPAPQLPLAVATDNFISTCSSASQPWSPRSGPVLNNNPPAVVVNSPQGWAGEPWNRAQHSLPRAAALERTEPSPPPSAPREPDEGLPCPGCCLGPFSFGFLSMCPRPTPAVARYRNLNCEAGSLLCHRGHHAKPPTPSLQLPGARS

[8] = target: Dual specificity protein kinase CLK3 (Homo sapiens) (UniProt P49761); assay: Inhibition of CLK3 (unknown origin) at 10 uM after 120 mins P33 radiolabeled kinase activity assay
Sequence of Dual specificity protein kinase CLK3 (Homo sapiens) (P49761 whole entry, looked up): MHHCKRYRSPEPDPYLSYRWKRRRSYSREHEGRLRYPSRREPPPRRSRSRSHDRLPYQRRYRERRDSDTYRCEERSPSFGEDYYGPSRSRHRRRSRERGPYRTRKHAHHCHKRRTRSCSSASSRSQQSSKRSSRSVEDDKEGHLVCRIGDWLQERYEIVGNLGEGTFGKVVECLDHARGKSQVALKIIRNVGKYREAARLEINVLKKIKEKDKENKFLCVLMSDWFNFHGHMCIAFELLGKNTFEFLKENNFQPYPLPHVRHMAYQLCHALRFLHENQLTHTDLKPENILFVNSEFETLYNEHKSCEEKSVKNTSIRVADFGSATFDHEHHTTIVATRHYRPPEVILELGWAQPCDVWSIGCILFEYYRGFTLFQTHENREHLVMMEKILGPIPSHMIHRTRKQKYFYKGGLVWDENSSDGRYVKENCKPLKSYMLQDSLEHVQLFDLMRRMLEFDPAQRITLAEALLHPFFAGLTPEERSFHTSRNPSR

[9] = target: Receptor-interacting serine/threonine-protein kinase 2 (Homo sapiens, UniProt O43353); assay: Inhibition of full-length FLAG-6His-TEV tagged human RIP2 expressed in Sf9 cells assessed as dissociation rate by fluorescent polarization assay
Sequence of Receptor-interacting serine/threonine-protein kinase 2 (O43353 whole entry): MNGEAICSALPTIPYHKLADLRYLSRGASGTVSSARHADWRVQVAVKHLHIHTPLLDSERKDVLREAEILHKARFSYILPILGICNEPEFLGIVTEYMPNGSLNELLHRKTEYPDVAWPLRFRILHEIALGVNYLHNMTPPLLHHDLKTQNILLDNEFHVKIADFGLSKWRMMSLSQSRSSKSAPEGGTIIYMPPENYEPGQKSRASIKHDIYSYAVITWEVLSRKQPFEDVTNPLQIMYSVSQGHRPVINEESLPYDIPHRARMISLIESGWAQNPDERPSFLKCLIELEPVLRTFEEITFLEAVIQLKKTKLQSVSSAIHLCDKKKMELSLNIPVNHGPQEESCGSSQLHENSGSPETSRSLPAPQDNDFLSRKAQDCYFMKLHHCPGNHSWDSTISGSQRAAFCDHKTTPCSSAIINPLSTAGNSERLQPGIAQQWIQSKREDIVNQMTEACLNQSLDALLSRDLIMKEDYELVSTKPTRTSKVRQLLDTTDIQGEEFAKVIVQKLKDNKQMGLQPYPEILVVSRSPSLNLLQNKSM

| inhibition [1] [%] | inhibition [2] [%] | inhibition [3] [%] | inhibition [5] [%] | inhibition [6] [%] | inhibition [7] [%] | inhibition [8] [%] | K [9] [s⁻¹] | SMILES | inhibition [4] [%] |
| --- | --- | --- | --- | --- | --- | --- | --- | --- | --- |
| 26.4 | 0.62 | 2.21 | 16.4 | 29.3 | 4.86 | 5.68 | 0.12 | COCCNC(=O)c1ccc2c(c1)nc(-c1cnc(-c3ccc(Cl)cc3)[nH]1)n2CCOC | 6.92 |
| 34 | 9.35 | 9.14 | 42.4 | 93.8 | 97 | 36.7 | 0.000147 | CS(=O)(=O)c1cccc(Nc2nccc(-c3sc(N4CCOCC4)nc3-c3cccc(NS(=O)(=O)c4c(F)cccc4F)c3)n2)c1 | 1.67 |
| 18.2 | 78.7 | 2.82 | 33.8 | 96 | 20 | 9.12 | 0.000135 | CC(C)(C)c1cc(NC(=O)Nc2ccc(Oc3ccncc3)cc2)no1 | 3.58 |
